Reference: patent publication US20140234351A1, “CANCER VACCINES AND VACCINATION METHODS” (ImmunoCellular Therapeutics, Ltd., priority 2013, published 2014)
Where two headings read alike, the source gives them in different places. One block for each compound: values may come before it. Where no end group is shown, it is not given here.

Columns and labels:
[1] = Immunogenicity in vitro of A2 peptide epitopes (Table 1); assay type: cell-based; details: Table 1, no method given
[2] = molecular target: HLA-A*0201 molecules on T2 cells (Homo sapiens, UniProt P04439, D140Y/D185E/D98H/E176V/E277Q/G131W/G231S/I119V/I121R/I166T/I218V/L300P/L318F/N151K/N90K/P208A/P217A/Q86G/Q94H/R138H/R169H/T345S); test: T2 cell binding assay of HLA-A2 peptides; details: peptide 75 μg/ml; for binding with T2 cells (affinity in words): conclusion of Example 11; for affinity to HLA-A*0201 molecules (up-regulation of HLA-A*0201 molecules): FIG. 5A
[3] = tested on: human ovarian cancer stem cells 882CSC
[4] = tested on: human ovarian cancer stem cells 1031CSC
[5] = tested on: human ovarian cancer stem cells 1031CSC; test: Killing assay of peptide-specific CTLs (DDAO-SE and cleaved caspase-3 method); details: target:effector 1:10, overnight, cleaved caspase-3, FIG. 6B
[6] = tested on: human ovarian cancer stem cells 882CSC; test: as above; details: target:effector 1:10, overnight, cleaved caspase-3, FIG. 6A

binding with T2 cells (affinity in words) [2]: lower binding capacity | affinity to HLA-A*0201 molecules (up-regulation of HLA-A*0201 molecules) ([2]; overnight): low affinity | MFI index (relative binding affinity fluorescence index) ([2]; overnight, FIG. 5B): less than 1
Compound: EIWTHSYKV (listed as Homo sapiens) [FOLR1p191]
Immunogenicity in vitro [1]: Yes

binding with T2 cells (affinity in words) [2]: high affinity binding | affinity to HLA-A*0201 molecules (up-regulation of HLA-A*0201 molecules) ([2]; overnight): high affinities
Compound: VLPLTVAEV (listed as Homo sapiens) [mesothelinp531]
Immunogenicity in vitro [1]: Yes

binding with T2 cells (affinity in words) [2]: high affinity binding
Compound: KVLEYVIKV (listed as Homo sapiens) [MAGEA1p278]
Immunogenicity in vitro [1]: Yes

Compound: CSCC[C@H](NC(=O)[C@@H](N)C(C)C)C(=O)N[C@@H](C)C(=O)NCC(=O)N[C@H](C(=O)NCC(=O)N[C@@H](CO)C(=O)N1CCC[C@H]1C(=O)N[C@@H](Cc1ccc(O)cc1)C(=O)N[C@H](C(=O)O)C(C)C)C(C)C [HER2p773]
cytotoxicity of peptide-specific CTLs against 882CSC [3]: efficiently recognize and lyse | cytotoxicity of peptide-specific CTLs against 1031CSC [4]: efficiently recognize and lyse

Compound: SLLFLLFSL (listed as Homo sapiens)
Immunogenicity in vitro [1]: Yes

Compound: TLADFDPRV [EphA2p883]
cytotoxicity of peptide-specific CTLs against 1031CSC [5]: efficiently recognize and lyse | cytotoxicity of peptide-specific CTLs against 882CSC [6]: efficiently recognize and lyse

Compound: WLPFGFILI [IL-13Rα2p345]
cytotoxicity of peptide-specific CTLs against 1031CSC [5]: efficiently recognize and lyse | cytotoxicity of peptide-specific CTLs against 882CSC [6]: efficiently recognize and lyse

Compound: SLLMWITQC [NY-ESO-1p157]
Immunogenicity in vitro [1]: Yes
